Drawing on ChEMBL document CHEMBL3638458, “Amine substituted methanesulfonamide derivatives as vanilloid receptor ligands” (2014), this text covers Ki for four molecules.

The test has as its target Transient receptor potential cation channel subfamily V member 1 (Homo sapiens, UniProt Q8NER1). Put plainly: FLIPR Assay: The FLIPR protocol consists of 2 substance additions. First the compounds to be tested (10 μM) are pipetted onto the cells and the Ca2+ influx is compared with the control (capsaicin 10 μM). This provides the result in % activation based on the Ca2+ signal after the addition of 10 μM of capsaicin (CP). After 5 minutes incubation, 100 nM of capsaicin are applied and the Ca2+ influx is also determined. Desensitising agonists and antagonists lead to suppression of the Ca2+ influx. The % inhibition is calculated compared to the maximum achievable inhibition with 10 μM of capsazepine. Starting from the percentage displacement caused by different concentrations of the compounds to be tested of general formula I, IC50 inhibitory concentrations which cause a 50-percent displacement of capsaicin were calculated. K1 values for the test substances were obtained by conversion by means of the Cheng-Prusoff equation (Cheng, Prusoff; Biochem. Pharmacol. 22, 3099-3108, 1973).

Transient receptor potential cation channel subfamily V member 1, sequence (Q8NER1 whole entry): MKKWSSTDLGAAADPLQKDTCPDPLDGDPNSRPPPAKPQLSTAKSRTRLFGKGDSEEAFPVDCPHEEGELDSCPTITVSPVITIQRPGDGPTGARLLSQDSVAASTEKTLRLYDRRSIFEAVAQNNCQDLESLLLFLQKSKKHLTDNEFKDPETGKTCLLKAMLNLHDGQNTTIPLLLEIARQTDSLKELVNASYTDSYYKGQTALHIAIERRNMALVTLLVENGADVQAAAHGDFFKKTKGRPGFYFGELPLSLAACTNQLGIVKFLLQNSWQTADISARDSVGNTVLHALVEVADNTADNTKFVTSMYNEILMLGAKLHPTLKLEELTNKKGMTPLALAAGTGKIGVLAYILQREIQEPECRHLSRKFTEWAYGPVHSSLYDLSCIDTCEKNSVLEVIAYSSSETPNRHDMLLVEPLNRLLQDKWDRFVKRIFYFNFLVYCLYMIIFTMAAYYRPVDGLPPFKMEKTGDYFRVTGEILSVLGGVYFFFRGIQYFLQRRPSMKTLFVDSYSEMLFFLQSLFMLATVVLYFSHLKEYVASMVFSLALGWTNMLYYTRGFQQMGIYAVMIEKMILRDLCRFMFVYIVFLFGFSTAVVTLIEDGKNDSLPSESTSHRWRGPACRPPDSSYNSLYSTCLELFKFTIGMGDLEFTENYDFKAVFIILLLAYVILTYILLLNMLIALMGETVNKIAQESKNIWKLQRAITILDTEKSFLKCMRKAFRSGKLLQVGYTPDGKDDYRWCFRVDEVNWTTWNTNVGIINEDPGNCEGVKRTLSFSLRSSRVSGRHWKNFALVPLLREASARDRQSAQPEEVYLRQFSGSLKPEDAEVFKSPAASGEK

As a reminder, the Ki is a measure of affinity in units of concentration, obtained from inhibition or displacement. `CC1CCN(c2nc(C(F)(F)F)ccc2CNC(=O)C(C)c2cccc(CNS(C)(=O)=O)c2)CC1` (centres undefined): the Ki was 102 nM.

Consider `CC(C(=O)NCc1ccc(C(F)(F)F)nc1N1CCCC1)c1ccc(CNS(C)(=O)=O)cc1` (centres undefined), for which the Ki was 20 nM. The value for `Cc1cc(C(C)C(=O)NCc2ccc(C(F)(F)F)nc2N2CCCC2)ccc1CNS(C)(=O)=O` (centres undefined) was 50 nM; that for `CCS(=O)(=O)NCc1ccc(C(C)C(=O)NCc2ccc(C(F)(F)F)nc2N2CCC(C)CC2)cc1F` (centres undefined) was 4 nM.
